From the supplement of paper PMC10307832

How the values were obtained:
Assay in all cases: relative viability (nuclei count vs DMSO), 5 days (fraction); higher = more cells survive
BEN = test system: BEN
In short: (§1)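 Lung cancer cell lines in 1536-well plates were dosed by pin tool the day after seeding, either with one drug alone or with a fixed anchor-drug dose plus five library-drug doses (not always all listed) in √10 steps. After 5 days, cells were fixed and their nuclei stained in one step (final 0.05% Triton X-100, 1% formaldehyde, 1 ug/ml Hoechst), then counted on 4× images. Relative viability is the nuclei count in treated wells divided by that in vehicle wells. Values are medians of duplicate plates.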

CAL-12T = test system: CAL-12T
In short: as §1

COR-L23 = test system: COR-L23
In short: as §1

HCC-44 = test system: HCC-44
In short: as §1

LU99A = test system: LU99A
In short: as §1

LXF-289 = test system: LXF-289
In short: as §1

NCI-H1355 = test system: NCI-H1355
In short: as §1

NCI-H1437 = test system: NCI-H1437
In short: as §1

NCI-H1650 = test system: NCI-H1650
In short: as §1

NCI-H1651 = test system: NCI-H1651
In short: as §1

NCI-H1666 = test system: NCI-H1666
In short: as §1

NCI-H1755 = test system: NCI-H1755
In short: as §1

NCI-H1792 = test system: NCI-H1792
In short: as §1

NCI-H1993 = test system: NCI-H1993
In short: as §1

NCI-H2085 = test system: NCI-H2085
In short: as §1

NCI-H2087 = test system: NCI-H2087
In short: as §1

NCI-H2170 = test system: NCI-H2170
In short: as §1

NCI-H460 = test system: NCI-H460
In short: as §1

NCI-H520 = test system: NCI-H520
In short: as §1

PC-14 = test system: PC-14
In short: as §1

SK-MES-1 = test system: SK-MES-1
In short: as §1

## Cc1csc(=NC2CCCCC2)n1/N=C/c1ccc(O)c(O)c1O [MIM1] + CC(=O)c1c(C)c2cnc(Nc3ccc(N4CCNCC4)cn3)nc2n(C2CCCC2)c1=O [Palbociclib] (partner 0.5 µM)
BEN; first compound 0.2 µM
  relative viability: 0.507
BEN; first compound 0.6325 µM
  relative viability: 0.466
BEN; first compound 2 µM
  relative viability: 0.438
BEN; first compound 6.325 µM
  relative viability: 0.468
BEN; first compound 20 µM
  relative viability: 0.407
CAL-12T; first compound 0.2 µM
  relative viability: 0.526
CAL-12T; first compound 0.6325 µM
  relative viability: 0.386
CAL-12T; first compound 2 µM
  relative viability: 0.481
CAL-12T; first compound 6.325 µM
  relative viability: 0.268
CAL-12T; first compound 20 µM
  relative viability: 0.118
COR-L23; first compound 0.2 µM
  relative viability: 0.301
COR-L23; first compound 0.6325 µM
  relative viability: 0.328
COR-L23; first compound 2 µM
  relative viability: 0.258
COR-L23; first compound 6.325 µM
  relative viability: 0.18
COR-L23; first compound 20 µM
  relative viability: 0.138
HCC-44; first compound 0.2 µM
  relative viability: 0.902
HCC-44; first compound 0.6325 µM
  relative viability: 0.981
HCC-44; first compound 2 µM
  relative viability: 0.94
HCC-44; first compound 6.325 µM
  relative viability: 0.608
HCC-44; first compound 20 µM
  relative viability: 0.578
LU99A; first compound 0.2 µM
  relative viability: 0.404
LU99A; first compound 0.6325 µM
  relative viability: 0.405
LU99A; first compound 2 µM
  relative viability: 0.38
LU99A; first compound 6.325 µM
  relative viability: 0.355
LU99A; first compound 20 µM
  relative viability: 0.159
LXF-289; first compound 0.2 µM
  relative viability: 0.603
LXF-289; first compound 0.6325 µM
  relative viability: 0.594
LXF-289; first compound 2 µM
  relative viability: 0.583
LXF-289; first compound 6.325 µM
  relative viability: 0.535
LXF-289; first compound 20 µM
  relative viability: 0.237
NCI-H1355; first compound 0.2 µM
  relative viability: 0.391
NCI-H1355; first compound 0.6325 µM
  relative viability: 0.371
NCI-H1355; first compound 2 µM
  relative viability: 0.41
NCI-H1355; first compound 6.325 µM
  relative viability: 0.385
NCI-H1355; first compound 20 µM
  relative viability: 0.288
NCI-H1437; first compound 0.2 µM
  relative viability: 0.305
NCI-H1437; first compound 0.6325 µM
  relative viability: 0.35
NCI-H1437; first compound 2 µM
  relative viability: 0.312
NCI-H1437; first compound 6.325 µM
  relative viability: 0.232
NCI-H1437; first compound 20 µM
  relative viability: 0.149
NCI-H1650; first compound 0.2 µM
  relative viability: 0.446
NCI-H1650; first compound 0.6325 µM
  relative viability: 0.316
NCI-H1650; first compound 2 µM
  relative viability: 0.256
NCI-H1650; first compound 6.325 µM
  relative viability: 0.137
NCI-H1650; first compound 20 µM
  relative viability: 0.136
NCI-H1651; first compound 0.2 µM
  relative viability: 0.542
NCI-H1651; first compound 0.6325 µM
  relative viability: 0.531
NCI-H1651; first compound 2 µM
  relative viability: 0.521
NCI-H1651; first compound 6.325 µM
  relative viability: 0.416
NCI-H1651; first compound 20 µM
  relative viability: 0.541
NCI-H1666; first compound 0.2 µM
  relative viability: 0.668
NCI-H1666; first compound 0.6325 µM
  relative viability: 0.608
NCI-H1666; first compound 2 µM
  relative viability: 0.611
NCI-H1666; first compound 6.325 µM
  relative viability: 0.647
NCI-H1666; first compound 20 µM
  relative viability: 0.67
NCI-H1755; first compound 0.2 µM
  relative viability: 0.432
NCI-H1755; first compound 0.6325 µM
  relative viability: 0.453
NCI-H1755; first compound 2 µM
  relative viability: 0.431
NCI-H1755; first compound 6.325 µM
  relative viability: 0.419
NCI-H1755; first compound 20 µM
  relative viability: 0.306
NCI-H1792; first compound 0.2 µM
  relative viability: 0.659
NCI-H1792; first compound 0.6325 µM
  relative viability: 0.622
NCI-H1792; first compound 2 µM
  relative viability: 0.644
NCI-H1792; first compound 6.325 µM
  relative viability: 0.475
NCI-H1792; first compound 20 µM
  relative viability: 0.56
NCI-H1993; first compound 0.2 µM
  relative viability: 0.624
NCI-H1993; first compound 0.6325 µM
  relative viability: 0.706
NCI-H1993; first compound 2 µM
  relative viability: 0.659
NCI-H1993; first compound 6.325 µM
  relative viability: 0.514
NCI-H1993; first compound 20 µM
  relative viability: 0.349
NCI-H2085; first compound 0.2 µM
  relative viability: 0.476
NCI-H2085; first compound 0.6325 µM
  relative viability: 0.466
NCI-H2085; first compound 2 µM
  relative viability: 0.461
NCI-H2085; first compound 6.325 µM
  relative viability: 0.482
NCI-H2085; first compound 20 µM
  relative viability: 0.537
NCI-H2087; first compound 0.2 µM
  relative viability: 0.228
NCI-H2087; first compound 0.6325 µM
  relative viability: 0.269
NCI-H2087; first compound 2 µM
  relative viability: 0.24
NCI-H2087; first compound 6.325 µM
  relative viability: 0.226
NCI-H2087; first compound 20 µM
  relative viability: 0.206
NCI-H2170; first compound 0.2 µM
  relative viability: 0.38
NCI-H2170; first compound 0.6325 µM
  relative viability: 0.398
NCI-H2170; first compound 2 µM
  relative viability: 0.373
NCI-H2170; first compound 6.325 µM
  relative viability: 0.227
NCI-H2170; first compound 20 µM
  relative viability: 0.142
NCI-H460; first compound 0.2 µM
  relative viability: 0.219
NCI-H460; first compound 0.6325 µM
  relative viability: 0.169
NCI-H460; first compound 2 µM
  relative viability: 0.106
NCI-H460; first compound 6.325 µM
  relative viability: 0.0475
NCI-H460; first compound 20 µM
  relative viability: 0.027
NCI-H520; first compound 0.2 µM
  relative viability: 0.195
NCI-H520; first compound 0.6325 µM
  relative viability: 0.239
NCI-H520; first compound 2 µM
  relative viability: 0.201
NCI-H520; first compound 6.325 µM
  relative viability: 0.22
NCI-H520; first compound 20 µM
  relative viability: 0.183
PC-14; first compound 0.2 µM
  relative viability: 0.475
PC-14; first compound 0.6325 µM
  relative viability: 0.554
PC-14; first compound 2 µM
  relative viability: 0.464
PC-14; first compound 6.325 µM
  relative viability: 0.454
PC-14; first compound 20 µM
  relative viability: 0.145
SK-MES-1; first compound 0.2 µM
  relative viability: 0.286
SK-MES-1; first compound 0.6325 µM
  relative viability: 0.327
SK-MES-1; first compound 2 µM
  relative viability: 0.282
SK-MES-1; first compound 6.325 µM
  relative viability: 0.259
SK-MES-1; first compound 20 µM
  relative viability: 0.174
